Source: patent US5886022A, “Substituted cycloalkanecarboxylic acid derivatives as matrix metalloprotease inhibitors” (priority 1997, dated 1999)
Blank lines part the entries; values can stand above or below the compound they belong to.

Experiments:
[1] = fenbufen analogs, literature; cited from earlier work
[2] = molecular target: T1, MMP-3 (recombinant stromelysin) (Homo sapiens, UniProt P08254); assay: Secondary P218 Quenched fluorescence Assay for MMP-3 Inhibition; assay type: biochemical
T1 construct: Expression and Purification of Recombinant Truncated Prostromelysin (MMP-3); made in house
From the text: Truncated Prostromelysin-257 was expressed in a soluble form in E.coli as described by Marcy et al., Biochemistry, 30, 6476-6483, 1991. Soluble truncated prostromelysin was purified by a modification of the monoclonal antibody affinity chromatography method described by Housley et al., J. Biol. Chem., 268, 4481-87, 1993.
This assay was originally described by Knight et al., FEBS Letters, 296, 263-266, 1992, for a related substrate. The assay is run continuously in a 3.Oml cuvette using a Perkin-Elmer LS 50 B Spectrofluorimeter at 25° C. in a final volume of 2.0 mls. P218 substrate (10 mM) in 100% DMSO is diluted to a final concentration of 2.0 micromolar (μM) into assay buffer: 50 mM MES, pH 6.5 containing 150 mM NaCl, 10 mM CaCl2, 0.005% Brij-35, and 1%(v/v) DMSO. Test compounds(10 mM) in DMSO are diluted in assay buffer at an initial concentration of 10 to 100 micromolar. […] The reaction is initiated by the addition of recombinant stromelysin (MMP-3) at a final concentration of 1.0 nM. Upon peptide cleavage, the fluorescent MCA group was detected using an excitation wavelength of 328 nanometers and an emission wavelength of 393 nanometers. The assay is linear from 0.2 to 5 nM MMP-3 concentration and percent inhibition is calculated as described above for the primary thiopeptilide assay and IC50 values are determined by a linear regression analysis of percent inhibition versus log drug concentration. The peptide sequence of the MCA substrate, hereinafter esignated P218, is shown below:
MCA-Pro-Lys-Pro-Leu-Ala-Leu-DPA-Ala-Arg-NH2 P218
(§1) All IC50 values are expressed as nM. When "I=x %" is shown, x presents the % inhibition at 5 μM. When "x (n)" is shown, x is the erage IC50 value of n separate determinations.

[3] = molecular target: T2, MMP-3 (recombinant truncated stromelysin) (Homo sapiens, UniProt P08254); assay: Primary Thiopeptilide MMP-3 Inhibition Assay; assay type: biochemical; conditions: x (n): average IC50 of n separate determinations
T2 construct: made in house; host or cells: E. coli

[4] = molecular target: T3, MMP-9 (Gelatinase-B, 92 kDa) (Homo sapiens, UniProt P14780); assay: Thiopeptilide MMP-9 Inhibition Assay; assay type: biochemical; conditions: x (n): average IC50 of n separate determinations
T3 construct: from tissue; host or cells: human polymorphonuclear leukocytes from fresh whole blood (New York Blood Center), PMA-stimulated supernatant, purified
Protocol: MMP-9 was isolated modifying the previously described procedures of Hibbs et al (J. Biol. Chem., 260, 2493-2500, 1984) and Wilhelm et al (J. Biol. Chem., 264, 17213-17221, 1989). Briefly, polymorphonuclear leukocytes (PMN) preparations were isolated as described above from 3 or more units of freshly drawn whole blood obtained from the New York Blood Center (N.Y., N.Y.). Cells were resuspended in phosphate buffered saline (PBS) containing 100 ng/ml phorbol myristate acetate (PMA) in the presence of 50 mM di-isopropylfluorophospate (DFP), 1 μg/ml leupeptin and aprotinin, and 1 mg/ml catalase for 1 hr at 37° C. Supernatants were collected by centrifugation (300×g) and the samples were frozen at -70° C. All chromatographic methods were performed at 4° C. Thawed samples were concentrated 5-fold using an Amicon chamber equipped with a YM-10 membrane. The concentrate was pressure dialyzed against 0.02M Tris-HCl, 0.1M NaCl, 1 mM CaCl2, 1 μM ZnCl2, 0.001 % Brij-35, 0.02% sodium azide (NaN3), pH 7.5 and applied to DEAE ion exchange chromatography resin which was previously equilibrated with the same buffer at a flow rate of 0.4 ml/min. The column was extensively washed with the same buffer and gelatinase was eluted as 4 ml fractions from the column with 0.02M Tris-HCl, 0.5M NaCl, 1 mM CaCl2, 1 μM ZnCl2, 0.001% Brij-35, 0.02% NaN3, pH 7.5. Gelatinase containing fractions were observed by gelatin zymography (see below), loaded onto a gelatin agarose affinity resin and washed with the same buffer. Gelatinase activity was eluted at a flow rate of 1 ml/min from the column as 1 ml fractions with 0.02M Tris-HCl, 1M NaCl, 1 mM CaCl2, 1 μmM ZnCl2, 0.001% Brij-35, 0.02% NaN3, pH 7.5 containing 10% dimethyl sulfoxide (DMSO). The fractions containing gelatinase activity were pooled and dialyzed against 0.005M Tris-HCl, 5 mM NaCl, 0.5 mM CaCl2, 0.1 μM ZnCl2, 0.001% Brij-35, pH 7.4. The protein content associated with material was determined with a micro-BCA assay (Pierce, Rockford, Ill.), lyophilized and reconstituted to a desired working concentration (100 μg/ml).
Progelatinase (10 μg/ml) isolated from human PMNs (described above) was activated with 1 mM 4-aminophenylmercuric acetate (APMA) in 50 mM Tris-HCl, 200 mM NaCl, 5 mM CaCl2, 0.001% Brij-35, pH 7.6 at 37° C. for 16 hr. The activated enzyme was dialyzed against the above buffer to remove APMA. The thiopeptolide spectrophotometric ( Weingarten, H., Feder, J., Anal. Biochem., 147, 437-440, 1985) substrate hydrolysis assay was modified to a micro-assay format. Spectrophotometric analysis of MMP-9 activity required a 1000-fold dilution of activated MMP-9 (10 ng/ml, 0.14 nM) in assay buffer comprised of 50 mM 4-(2-hydroxyethyl)1-piperazine ethane sulfonic acid (HEPES), 0.15M NaCl, 10 mM CaCl2, 0.001% Brij-35, pH 6.5 between 100 and 1000-fold for enzyme assays. Reaction mixtures for inhibitor studies contained 1 mM Ac-Pro-Leu-Gly-S-Leu-Leu-Gly-o-ethyl thiopeptolide substrate dissolved in HEPES assay buffer pH 6.5, along with 0.5 mM 5,5'-dithio-bis-(nitrobenzoicacid), drug concentrations ranging from 0.5 nM to 5 μM and activated enzyme (10-100 ng) in a total volume of 130 μl. The hydrolysis of substrate was monitored at 405 nm using an automated plate reader (Molecular Devices, Menlo Park, Calif.). Enzyme mediated substrate hydrolysis was corrected for non-enzymatic hydrolysis of the substrate by the subtraction of values from control samples incubated in the absence of enzyme. Drug efficacy was reported as the percent inhibition of enzyme activity calculated as:
(Control Values-Treated Values)/Control Values×100
Two way analysis of variance was used to determine significance between individual test groups.
as §1

T1 sequence (P08254 100-274 limits assumed): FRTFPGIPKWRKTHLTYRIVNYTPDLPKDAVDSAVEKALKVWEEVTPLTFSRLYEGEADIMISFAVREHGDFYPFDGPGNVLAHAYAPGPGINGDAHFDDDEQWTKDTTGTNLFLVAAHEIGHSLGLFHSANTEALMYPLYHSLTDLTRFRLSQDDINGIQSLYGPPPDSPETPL
T2 sequence (P08254 100-274 limits assumed): as above
T3 sequence (P14780 107-707 limits assumed): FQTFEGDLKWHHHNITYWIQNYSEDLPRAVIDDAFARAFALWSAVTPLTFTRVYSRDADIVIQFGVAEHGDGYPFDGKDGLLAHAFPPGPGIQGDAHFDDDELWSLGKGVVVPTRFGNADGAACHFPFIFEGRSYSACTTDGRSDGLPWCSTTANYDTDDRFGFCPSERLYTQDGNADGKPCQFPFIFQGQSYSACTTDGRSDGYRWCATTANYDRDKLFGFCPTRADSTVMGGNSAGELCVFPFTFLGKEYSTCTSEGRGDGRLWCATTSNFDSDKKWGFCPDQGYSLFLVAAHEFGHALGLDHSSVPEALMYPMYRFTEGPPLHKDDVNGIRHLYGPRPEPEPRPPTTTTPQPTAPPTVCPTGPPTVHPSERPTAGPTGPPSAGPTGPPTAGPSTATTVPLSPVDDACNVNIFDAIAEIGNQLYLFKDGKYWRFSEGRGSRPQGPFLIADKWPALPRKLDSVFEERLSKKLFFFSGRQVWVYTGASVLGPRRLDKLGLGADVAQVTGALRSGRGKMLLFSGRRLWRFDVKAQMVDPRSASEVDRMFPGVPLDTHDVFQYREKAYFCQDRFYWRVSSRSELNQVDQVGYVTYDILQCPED

Compound: CC(CC(=O)c1ccc(-c2ccccc2)cc1)C(=O)O (stereo not shown) [XLVIII]
activity in words [1]: inactive

Compound: MCA-Pro-Lys-Pro-Leu-Ala-Leu-DPA-Ala-Arg-NH2 [Example P218, reference compound]
cat/Km value of substrate for MMP-3 ([2]; pH 6.5): 56,000 M^-1 sec^-1
Km ([2]; pH 6.5, read-out: Km of substrate for MMP-3): 16 µM

Compound: O=C(O)CC(C(=O)c1ccc(-c2ccccc2)cc1)c1ccccc1 (stereo not shown) [LXXVII]
activity in words [1]: inactive

IC50 [3]: 26 nM
IC50 ([2]; P218 substrate, x (n): average IC50 of n separate determinations, read-out: MMP-3 Fluorogenic IC50): 12 nM
IC50 [4]: 25 nM
Compound: O=C(O)[C@@H]1[C@@H](C(=O)c2ccc(-c3ccc(Cl)cc3)cc2)CC[C@H]1Sc1ccccc1 (single isomer, unassigned) [Example 211, Cyclopentanecarboxylic acid, 2-[(4'-chloro[1,1'-biphenyl]-4-yl)carbonyl]-5-(phenylthio)-, [1S-(1α,2β,5β)]-]
